Measurements as given in PubChem BioAssay (NCI).
“And” between values parts separate entries of the source, which are not always exact repeats. Equal values may be shown once.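 Tested at 5 concentrations; 48 h exposure; 96-well plates; endpoints linearly interpolated, else capped at highest concentration. The concentration for 50% growth inhibition is given as GI50. Definition used: TGI = concentration required for complete inhibition of growth.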

Tests used:
Experiment in all cases: growth of human tumour cells (NCI), 48 h
OVCAR-3 ovarian = tested on: OVCAR-3 ovarian
HOP-92 NSCLC = tested on: HOP-92 NSCLC
EKVX NSCLC = tested on: EKVX NSCLC
MDA-MB-231 breast = tested on: MDA-MB-231 breast
CAKI-1 renal = tested on: CAKI-1 renal
HS 578T breast = tested on: HS 578T breast
SNB-75 CNS = tested on: SNB-75 CNS
OVCAR-4 ovarian = tested on: OVCAR-4 ovarian
U251 CNS = tested on: U251 CNS
PC-3 prostate = tested on: PC-3 prostate
SF-539 CNS = tested on: SF-539 CNS
TK-10 renal = tested on: TK-10 renal

| Compound | TGI (OVCAR-3 ovarian) | TGI (HOP-92 NSCLC) | GI50 (EKVX NSCLC) | TGI (EKVX NSCLC) | GI50 (MDA-MB-231 breast) | TGI (MDA-MB-231 breast) | TGI (CAKI-1 renal) | TGI (HS 578T breast) | TGI (SNB-75 CNS) | TGI (OVCAR-4 ovarian) [µM] | TGI (U251 CNS) | GI50 (PC-3 prostate) | TGI (PC-3 prostate) | GI50 (HOP-92 NSCLC) | GI50 (SF-539 CNS) | TGI (SF-539 CNS) | GI50 (SNB-75 CNS) | GI50 (OVCAR-4 ovarian) [µM] | TGI (TK-10 renal) [µM] | GI50 (U251 CNS) |
| --- | --- | --- | --- | --- | --- | --- | --- | --- | --- | --- | --- | --- | --- | --- | --- | --- | --- | --- | --- | --- |
| CC1OC(OC2C(OC(=O)[C@]34CCC(C)(C)C[C@H]3C3=CC[C@@H]5[C@@]6(C)CC[C@H](OC7OC(C(=O)O)C(O)C(O)C7O)C(C)(C)[C@@H]6CC[C@@]5(C)[C@]3(C)C[C@H]4O)OCC(O)C2O)C(O)C(O)C1OC1OCC(O)C(O)C1O (stereo partly drawn) | 32.2 µM and 29.1 µM | 26.9 µM and 24.4 µM | 7.47 µM and 3.7 µM | 21.3 µM and 13 µM | 9.19 µM and 3.49 µM | 22.3 µM and 8.24 µM | 25.6 µM and 21.6 µM | 39.5 µM and 39.3 µM | 29.9 µM and 31.3 µM | 31.7 | 29.1 µM and 24.3 µM | 11.3 µM and 5.07 µM | 23.7 µM and 18.6 µM | – | – | – | – | – | – | – |
| CSc1nc(-c2ccc(Cl)cc2)c(C#N)c(=O)n1C1OC(COC(C)=O)C(OC(C)=O)C(OC(C)=O)C1OC(C)=O (stereo not drawn) | 33.2 µM | 32 µM and 82.7 µM | – | > 100 µM | – | – | > 100 µM | – | 31.9 µM and > 100 µM | > 100 | 71.6 µM and > 100 µM | – | – | 10.4 µM and 4.43 µM | 15.2 µM and > 100 µM | 31.6 µM and > 100 µM | 14.8 µM and > 100 µM | > 100 | > 100 | 20.6 µM and > 100 µM |
| CSC12c3cc(C)n(-c4ccc([N+](=O)[O-])cc4)c3CC(C)(C)CN1C(=O)C2Oc1ccccc1 (stereo not drawn) | > 100 µM | > 100 µM | – | > 100 µM | – | > 100 µM | > 100 µM | – | > 100 µM | > 100 | > 100 µM | – | > 100 µM | – | – | > 100 µM | – | – | – | – |
| CCn1cc2c(=O)n3ncn(-c4ccc(Br)cc4)c3nc2n1 | > 100 µM | – | – | > 100 µM | – | > 100 µM | > 100 µM | > 100 µM | 45.8 µM | > 100 | > 100 µM | – | > 100 µM | – | – | – | – | – | > 100 | – |
| O=c1nc2n3c4c(cccc4nc-2c(=O)[nH]1)CCC3 | > 100 µM | – | – | > 100 µM | – | > 100 µM | > 100 µM | > 100 µM | > 100 µM | > 100 | > 100 µM | – | > 100 µM | – | – | > 100 µM | – | – | > 100 | – |
| CC1=C(C(=O)OC2CC3CCC2(C)C3(C)C)C2Nc3ccccc3N(C)C2O1 (stereo not drawn) | 11.9 µM | 20.8 µM | – | 21.1 µM | – | 16.9 µM | 10.5 µM | 16.3 µM | 11.5 µM | – | 16.6 µM | – | 12.3 µM | – | – | – | – | – | 17.4 | – |
| COc1cccc(/C=N/n2c(Cc3ccccc3)n[nH]c2=O)c1 | > 100 µM | – | – | > 100 µM | – | > 100 µM | > 100 µM | 50 µM | 61.2 µM | > 100 | > 100 µM | – | > 100 µM | – | – | > 100 µM | – | – | > 100 | – |
| CCOCCOCCOCc1nc(C#N)c(N)o1 | > 100 µM | – | – | > 100 µM | – | > 100 µM | > 100 µM | – | > 100 µM | > 100 | > 100 µM | – | > 100 µM | – | – | > 100 µM | – | – | > 100 | – |
| CN1C(=O)C2(C)SC1(c1ccccc1)C1C(=O)N(c3ccccc3)C(=O)C12 (stereo not drawn) | > 100 µM | > 100 µM | – | > 100 µM | – | > 100 µM | > 100 µM | > 100 µM | – | > 100 | > 100 µM | – | > 100 µM | – | – | > 100 µM | – | – | > 100 | – |
| COc1ccc(CNc2cnc3cc(N)ccc3n2)cc1 | > 100 µM | – | – | > 100 µM | – | – | – | – | > 100 µM | > 100 | > 100 µM | – | – | – | – | > 100 µM | – | – | > 100 | – |
| N#CC12C(=O)NC(=O)C1(C#N)C1C=CC2CC1 (stereo not drawn) | > 100 µM | – | – | > 100 µM | – | – | > 100 µM | > 100 µM | > 100 µM | > 100 | > 100 µM | – | > 100 µM | – | – | > 100 µM | – | – | > 100 | – |
| CCOc1cc(C2CC(c3ccc(NS(=O)(=O)c4cc([N+](=O)[O-])ccc4C)cc3)=NN2S(=O)(=O)c2cc([N+](=O)[O-])ccc2C)ccc1O (stereo not drawn) | 71.5 µM | 60.7 µM | – | 82.2 µM | – | > 100 µM | > 100 µM | > 100 µM | – | > 100 | > 100 µM | – | > 100 µM | – | – | > 100 µM | – | – | > 100 | – |
| N#CC12C(=O)N3C(=NC(c4ccco4)NC3c3ccco3)C1(C#N)C(c1ccco1)NC1=C2CCCC1 (stereo not drawn) | – | > 100 µM | – | > 100 µM | – | > 100 µM | > 100 µM | > 100 µM | – | > 100 | > 100 µM | – | > 100 µM | – | – | – | – | – | > 100 | – |
| CN=C1Nc2ccccc2C(=O)N2CSCC12 (stereo not drawn) | > 100 µM | – | – | > 100 µM | – | > 100 µM | > 100 µM | > 100 µM | > 100 µM | > 100 | > 100 µM | – | > 100 µM | – | – | – | – | – | > 100 | – |
| FC1(F)[Se]C2C3CCC(C3)C2C1(F)F (stereo not drawn) | > 100 µM | – | – | > 100 µM | – | > 100 µM | > 100 µM | > 100 µM | > 100 µM | > 100 | > 100 µM | – | > 100 µM | – | – | > 100 µM | – | – | > 100 | – |
| O=c1c2cc(-c3ccccc3)cnc2sn1-c1ccc(Br)cc1 | > 100 µM | > 100 µM | – | > 100 µM | – | > 100 µM | > 100 µM | – | > 100 µM | > 100 | > 100 µM | – | > 100 µM | – | – | > 100 µM | – | – | – | – |
| CC(=O)Nc1ccc2c3c(cc(O)c2c1)N(C(=O)CCCC(=O)N1CC(CCl)c2c1cc(O)c1cc(NC(C)=O)ccc21)CC3CCl (stereo not drawn) | 0.0262 µM | – | – | 0.0925 µM | – | < 0.01 µM | 0.183 µM | – | < 0.0262 µM | 0.64 | < 0.0139 µM | – | 0.421 µM | – | – | 0.0964 µM | – | – | 0.057 | – |
| COC(=O)[C@]12CC3C=CC1N(C3)C(CBr)c1c2n(S(=O)(=O)c2ccccc2)c2ccccc12 (stereo partly drawn) | > 100 µM | – | – | > 100 µM | – | > 100 µM | > 100 µM | > 100 µM | 86.2 µM | > 100 | > 100 µM | – | > 100 µM | – | – | – | – | – | > 100 | – |
| C=CC(=O)Nc1ccc(NC(=O)C=C)c2c1C(=O)c1ccccc1C2=O | > 100 µM | – | – | > 100 µM | – | > 100 µM | – | > 100 µM | – | – | > 100 µM | – | > 100 µM | – | – | 70.9 µM | – | – | 62.5 | – |
| C=C(C)C12CC3CC(/C(=N/O)C(C1)/C3=N\O)[C@@]2(C)O (stereo partly drawn) | > 100 µM | – | – | > 100 µM | – | – | > 100 µM | – | > 100 µM | – | > 100 µM | – | – | – | – | > 100 µM | – | – | > 100 | – |
